IC50 data for 20 compounds are collected here from BindingDB's records for doi:10.1016/j.bioorg.2016.08.005 (Comsats Institute of Information Technology, 2016).

Test [1] addresses Aldo-keto reductase family 1 member A1 (Bos taurus, UniProt Q3ZCJ2). The test can be described thus: ALR1 in vitro Inhibition Assay. As to conditions: pH 6.2. As for the experimental part:
The assay results were obtained at 340 nm and ALR1 inhibitory activity was measured with the absorbance change at this respective wavelength. Each well contains 200 µL of assay mixture containing potassium phosphate buffer 100 mM at pH 6.2 with test sample 20 µL of 10 mM, 70 µL enzyme preparation and 40 µL of10 mM sodium D-glucoronic acid as a substrate. This mixture was incubated at 37 °C for 5 min and 50 µL of 0.1 mM NADPH as a cofactor was added and the read was obtained at 340 nm. The assay mixture was incubated again at 37 °C for 10 min and the read was taken at the respective UV range in ELIZA plate reader. As positive and negative control, 10 mM valproic acid (20 µL) and buffer solution (20 µL) were used [Biol. Chem., 240:877-882].

Test [2] concerns the target Aldo-keto reductase family 1 member B1 [K65Q] (Bos taurus, UniProt P16116, K65Q). Description: ALR2 in vitro Inhibition Assay. The procedure:
The activity of ALR2 enzyme was determined at 340 nm in UV spectrophotometer that depends upon the measurement of NADPH consumption. Each well of the 96-well plate contains 200 µL of assay mixture consisting of potassium phosphate buffer 100 mMat 6.2 pH, 20 µL of 10 mM test sample, 70 µL of enzyme preparation and substrate D,L-glyceraldehyde (40 µL), all mixture was incubated at 37 °C for 5 min and then 0.1 mM NADPH (50 µL) was added as a cofactor in the enzyme reaction and read was measured at 340 nm and followed by incubation at 37 °C for 10 min and thenabsorbance was measured in Eliza plate reader at respective wavelength. Negative and positive control used were 10 m M buffer (20 µL) and 10 mM sulindac (20 µL) [Med. Chem. Commun., 5:1371-1380].

Sequence of Aldo-keto reductase family 1 member A1 (Q3ZCJ2 whole entry): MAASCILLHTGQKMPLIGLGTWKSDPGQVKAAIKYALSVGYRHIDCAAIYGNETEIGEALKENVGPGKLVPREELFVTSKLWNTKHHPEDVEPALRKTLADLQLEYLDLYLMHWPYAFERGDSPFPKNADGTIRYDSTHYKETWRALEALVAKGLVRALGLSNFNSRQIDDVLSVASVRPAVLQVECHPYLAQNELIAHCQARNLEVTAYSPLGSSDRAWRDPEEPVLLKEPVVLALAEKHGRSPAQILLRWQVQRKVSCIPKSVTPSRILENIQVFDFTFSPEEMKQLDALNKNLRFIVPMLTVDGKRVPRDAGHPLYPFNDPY

`O=c1oc2ccccc2cc1-c1csc(NN=C(c2ccccc2)c2ccccc2)n1` [3-(2-(2-(diphenylmethylene)hydrazinyl)thiazol-4-yl)-2Hchromen-2-one (6n)] returned an IC50 in test [1] of 17.1 µM.

`O=c1oc2ccccc2cc1-c1nn(CNc2ccccc2Cl)c(=S)o1` [3-(4-((2-Chlorophenylamino)methyl)-5-thioxo-4,5-dihydro-1,3,4-oxadiazol-2-yl)-2H-chromen-2-one (11d)] had an IC50 in test [2] of 0.31 µM.

In turn, `O=c1oc2ccccc2cc1-c1nn(CNc2cccc(Cl)c2)c(=S)o1` [3-(4-((3-Chlorophenylamino)methyl)-5-thioxo-4,5-dihydro-1,3,4-oxadiazol-2-yl)-2H-chromen-2-one (11e)] registered an IC50 in test [1] of 15.2 µM.

For the compound `O=c1oc2ccccc2cc1-c1nn(CNc2ccc(Cl)cc2)c(=S)o1` [3-(4-((4-Chlorophenylamino)methyl)-5-thioxo-4,5-dihydro-1,3,4-oxadiazol-2-yl)-2H-chromen-2-one (11f)], the figures for the IC50 in test [1] and in test [2] were 5.68 µM and 3.39 µM, respectively.

Take `CCCCNCn1nc(-c2cc3ccccc3oc2=O)oc1=S` [3-(4-((Butylamino)methyl)-5-thioxo-4,5-dihydro-1,3,4-oxadiazol-2-yl)-2H-chromen-2-one (11b)]: the IC50 stood at 3.36 µM in test [1] and 57.5 µM in test [2].

For `O=c1oc2ccccc2cc1-c1nn(CN(c2ccccc2)c2ccccc2)c(=S)o1` [3-(4-((Diphenylamino)methyl)-5-thioxo-4,5-dihydro-1,3,4-oxadiazol-2-yl)-2H-chromen-2-one (11h)], in test [2], the IC50 was determined as 3.39 µM.

`Cc1ccc(NCn2nc(-c3cc4ccccc4oc3=O)oc2=S)cc1` [3-(4-((p-Toluidino)methyl)-5-thioxo-4,5-dihydro-1,3,4-oxadiazol-2-yl)-2H-chromen-2-one (11c)] registered an IC50 in test [1] of 7.11 µM.

For the compound `O=c1oc2ccccc2cc1-c1nn(CN2CCOCC2)c(=S)o1` [3-(4-(Morpholinomethyl)-5-thioxo-4,5-dihydro-1,3,4-oxadiazol-2-yl)-2H-chromen-2-one (11g)], inhibition in test [2] was half-maximal at 0.34 µM (IC50).

Regarding `C/C(=N\Nc1nc(-c2cc3ccccc3oc2=O)cs1)c1ccccc1Br` [(E)-3-(2-(2-(1-(2-bromophenyl)ethylidene)hydrazinyl)thiazol-4-yl)-2H-chromen-2-one (6c)], the results for the IC50 in test [1] and in test [2] were 34.7 µM and 0.16 µM, respectively.

For `C/C(=N\Nc1nc(-c2cc3ccccc3oc2=O)cs1)c1ccccc1F` [(E)-3-(2-(2-(1-(2-fluorophenyl)ethylidene)hydrazinyl)thiazol-4-yl)-2H-chromen-2-one (6f)], the IC50 in test [1] was found to be 57.4 µM.

In the case of `COc1ccc(/C(C)=N/Nc2nc(-c3cc4ccccc4oc3=O)cs2)c(O)c1` [(E)-3-(2-(2-(1-(2-hydroxy-4-methoxyphenyl)ethylidene)hydrazinyl)thiazol-4-yl)-2H-chromen-2-one (6j)], it took 5.47 µM to reach half-maximal inhibition in test [1] (IC50).

Consider `C/C(=N\Nc1nc(-c2cc3ccccc3oc2=O)cs1)c1cccc(Br)c1` [(E)-3-(2-(2-(1-(3-bromophenyl)ethylidene)hydrazinyl)thiazol-4-yl)-2H-chromen-2-one (6d)], for which the IC50 in test [1] worked out at 93.6 µM; in test [2] it was 6.35 µM.

With `COc1ccc(/C(C)=N/Nc2nc(-c3cc4ccccc4oc3=O)cs2)cc1F` [(E)-3-(2-(2-(1-(3-fluoro-4-methoxyphenyl)ethylidene)hydrazinyl)thiazol-4-yl)-2H-chromen-2-one (6i)], the IC50 in test [1] was 1.08 µM.

The compound `COc1ccc(/C(C)=N/Nc2nc(-c3cc4ccccc4oc3=O)cs2)cc1I` [(E)-3-(2-(2-(1-(3-iodo-4-methoxyphenyl)ethylidene)hydrazinyl)thiazol-4-yl)-2H-chromen-2-one (6l)] yielded an IC50 in test [1] of 14.4 µM.

In the case of `C/C(=N\Nc1nc(-c2cc3ccccc3oc2=O)cs1)c1ccc(Br)cc1` [(E)-3-(2-(2-(1-(4-bromophenyl)ethylidene)hydrazinyl)thiazol-4-yl)-2H-chromen-2-one (6e)], the IC50 in test [1] is 1.71 µM; in test [2] it was 0.11 µM.

Take `COc1cc(/C(C)=N/Nc2nc(-c3cc4ccccc4oc3=O)cs2)ccc1O` [(E)-3-(2-(2-(1-(4-hydroxy-3-methoxyphenyl)ethylidene)hydrazinyl)thiazol-4-yl)-2H-chromen-2-one (6k)]: the results for the IC50 in test [1] and in test [2] were 1.41 µM and 1.76 µM, respectively.

`COc1ccc(/C(C)=N/Nc2nc(-c3cc4ccccc4oc3=O)cs2)cc1` [(E)-3-(2-(2-(1-(4-methoxyphenyl)ethylidene)hydrazinyl)thiazol-4-yl)-2H-chromen-2-one (6h)] returned an IC50 in test [1] of 7.62 µM.

On to `C/C(=N\Nc1nc(-c2cc3ccccc3oc2=O)cs1)c1ccccc1` [Coumarin-thiazole series I, 6a], for which the IC50 in test [1] came to 2.94 µM; in test [2] it was 0.12 µM.

In the case of `C/C(=N\Nc1nc(-c2cc3ccccc3oc2=O)cs1)c1cc2ccccc2oc1=O` [Coumarin-thiazole series I, 6o], 8.91 µM corresponded to half-maximal inhibition in test [1] (IC50).

`CC1=C(CC(=O)O)c2cc(F)ccc2/C1=C\c1ccc([S@@+](C)[O-])cc1` [cis-5-Fluoro-2-methyl-1-((p-methylsulfinyl)benzylidene)indene-3-acetic acid]: the IC50 in test [2] turned out to be 0.293 µM.

By IC50 is commonly meant the concentration that inhibits the measured activity by half.
